# Laboratory results as given in patent US9937178B2, “Methods of identifying and using MDM2 inhibitors” (DUKE UNIVERSITY, priority 2011, dated 2018).
# Legend:
# Format in all cases: cell-based
# MDM2 = experiment: Immunoblot of MDM2 protein levels; conditions: 1 μM lapatinib
# Description: Cells treated with 1 μM lapatinib were harvested at various time points and immunoblotted. […] BT474 and rBT474 cells were transiently transfected with HA-tagged Huwe1 and subsequently treated with 50 μg/ml cycloheximide (CHX) and 1 μM lapatinib. […] Immunoprecipitation was carried out using H1299 cell lysates and anti-Huwe1 antibody (or control IgG). […] BT474 cells were transfected with HA-tagged Huwe1 encoding the full-length protein, residues 1-2474, or residues 2473-4374. […] BT474 cells were transfected with increasing amounts of MDM2 and harvested after 48 hours. […] SUM190 cells were transfected with Scrambled or MDM2-specific siRNA (100 nM) and harvested after 72 hours. […] Ubiquitylation of Huwe1 was reconstituted in vitro by incubating recombinant Huwe1 protein (Huwe1^1-2474) with E1, UbcH5 (E2), ubiquitin (Ub), and recombinant MDM2 protein in reaction buffer at 37° C. for 3 hours. […] Twenty-four hours later, the cells were replated and further transfected with HA-tagged Huwe1 (wild type). Forty-eight hours after siRNA transfection, the cells were treated with 1 μM lapatinib. After 24 hours of lapatinib treatment, 50 μg/ml cycloheximide (CHX) was added to the culture medium and cells were harvested at various time points for immunoblotting.
# CAS mRNA = experiment: Quantitative real-time PCR of CAS mRNA; conditions: sensitive or resistant cells
# Mcl-1 = experiment: 35[S]-Mcl-1 degradation in cell-free lysates; conditions: resistant cell lysates, only from cells treated with lapatinib (rBT474)
# Description: FIG. 3 is a set of photographs showing that Mcl-1 is stabilized in lapatinib-resistant cells. […] FIG. 3B is a set of immunoblots showing the levels of HER2 and phospho-HER2 in untreated cells and cells treated with lapatinib. Cells were treated with or without lapatinib (1 μM) for 24 hours in the presence of the caspase inhibitor z-VAD (50 μM). The cells were harvested and cell lysates were immunoblotted using antibodies against phospho-HER2 (Y877) and total HER2. FIG. 3C is an immunoblot for phospho-AKT (T308) and total AKT. BT474 and rBT474 cells were treated with 1 μM lapatinib in the presence of 50 μM z-VAD. At the indicated time points, the cells were harvested and immunoblotted. FIG. 3D is an immunoblot for phospho-Erl1/2(T202/Y204) and total Erk1/2. BT474 and rBT474 cells were treated with 1 μM lapatinib in the presence of 50 μM z-VAD. At the indicated time points, the cells were harvested and immunoblotted. […] FIG. 3F is an autoradiograph showing the ^35[S] radioactivity in lysates containing ^35[S]-Mcl-1 at the indicated time points. ^35[S]-labeled Mcl-1 protein was incubated in cell-free lysates prepared from BT474 and rBT474 cells (top) or SKBR3 and rSKBR3 cells (bottom). […] FLAG-Mcl-1 was retrieved by immunoprecipitation using anti-flag agarose, and Mcl-1 ubiquitylation was analyzed by immunoblotting for HA (*non-specific band, **IgG heavy chain). […]
# CAS = experiment: Immunoblot of CAS protein levels
# Description: FIG. 11 is a set of photographs of immunoblots showing CAS degradation in lapatinib-resistant cells. FIG. 11A is an immunoblot for CAS and Actin. BT474 and rBT474 (left) or AU565 and rAU565 cells (right) cultured in the absence of lapatinib for one week were treated with 1 μM lapatinib and the cells were harvested at various time points. FIG. 11B is an immmunoblot for CAS and Actin. rBT474 cells were maintained in the presence of […] lapatinib and the cells were harvested at various time points following removal of lapatinib. FIG. 11C is an immunoblot for FLAG and actin. BT474 and rBT474 cells were transiently transfected with FLAG-tagged CAS and subsequently treated with 50 μg/ml cycloheximide (CHX) and 1 μM lapatinib and the cells were harvested at various time points. FIG. 11D is an immunoblot using HA to analyze ubiquitination of CAS. BT474 and rBT474 (left) or SKBR3 and rSKBR3 cells (right) were co-transfected with FLAG-CAS and HA-Ub. […] After treatment with 10 μM MG 132 for 8 hours, cells were harvested and FLAG-CAS was retrieved by immunoprecipitation. FIG. 11E is an immunoblot for FLAG-tagged proteins retrieved by immunoprecipitation and association with MDM2. H1299 cells were transfected with empty vector, FLAG-CAS^W127A, or FLAG-CAS wild type. FIG. 11F is an immunoblot for CAs after immunoprecipitation for FLAG. H1299 cells were transfected with empty vector, FLAG-CAS^W127A, or FLAG-CAS wild type. Cells were treated with 10 μM MG132 for 3 hours. […] SKBR3 cells were transfected with increasing amounts of MDM2. After 48 hours, cells were harvested and immunoblotted (*non-specific band). FIG. 11H is an immunoblot for CAS. […] FIG. 11I is an immunoblot for MDM2 or CAs after immunoprecipitation with FLAG. BT474 and rBT474 cells were transfected with FLAG-CAS. […] After treatment with 10 μM MG132 for 5 hours, FLAG-CAS was retrieved by immunoprecipitation and association of endogenous MDM2 was analyzed by immunoblotting.
# [1] = tested on: rBT474, rSKBR3, rAU565 and rSUM190 cells; experiment: Apoptotic cell death (Annexin V FACS) in lapatinib-resistant lines; conditions: all four resistant lines
# Description: FIG. 2 is a set of graphs showing the percentage of cells undergoing apoptotic cell death for each of the four cell lines and their matched resistant cell line in the presence or absence of lapatinib and/or an MDM2 inhibitor, MI-219, as measured by FACS analysis for Annexin V. Results are expressed as mean +/− SEM of Annexin V positive cells.
# BT474, SKBR3, and AU565 cells were obtained from ATCC. SUM190 cells were obtained from Asterand, Inc. All cell lines were cultured in RPMI medium containing 10% fetal bovine serum (FBS). Lapatinib-resistant cells (rBT474, rSKBR3, rAU565, and rSUM190) were established as previously described^14. Cobleigh, et al. J. Clin. Oncol. 17, 2639-2648 (1999). Lapatinib-resistant cells were grown in the presence of 1 μM lapatinib unless otherwise stated.
# HSP90β = HSP90β phosphorylation (Ser226, Ser255)
# Description: FIG. 7C is an autoradiograph of ^32P and an immunoblot showing the percentage of the protein phosphorylated. In the presence of [γ-^32P]ATP, recombinant His-tagged HSP90β proteins (wild type and the indicated mutants) on nickel beads were incubated with the HSP90β-targeted kinase casein kinase 2. FIG. 7D is an autoradiograph and corresponding immunoblot showing BT474 or rBT474 cells after being cultured in the absence or presence of 1 μM lapatinib for 24 hours in the presence of z-VAD. Recombinant His-tagged HSP90β protein on nickel beads was incubated with the cell lysates in the presence of [γ-^32P]ATP. FIG. 7E is an immunoblot for phospho-Hsp90β (Ser226) and total HSP90β at various time points. BT474 or rBT474 cells were treated with 1 μM lapatinib for the indicated amount of time. FIG. 7F is a set of graphs showing FACS analysis for the phosphorylation status of Hsp90β (Ser255). BT474 or rBT474 cells cultured in the presence of 1 μM lapatinib for 24 hours were fixed with formaldehyde and incubated with phospho-Hsp90β (Ser255) antibody followed by an Alexa488-conjugated secondary antibody.
smiles,measurement,setting,value
CS(=O)(=O)CCNCc1ccc(-c2ccc3ncnc(Nc4ccc(OCc5cccc(F)c5)c(Cl)c4)c3c2)o1 [lapatinib],MDM2 levels,MDM2; parental cells,rapidly decreased
same,MDM2 levels,MDM2; resistant cells,maintained
same,CAS mRNA levels,CAS mRNA,did not cause a reduction
same,Mcl-1 protein half-life,Mcl-1,prolonged
same,CAS protein levels,"CAS; low-HER2 lines non-responsive to lapatinib (e.g., T47D cells)",did not alter
same,CAS protein levels,"CAS; parental cells, 1 μM lapatinib",did not affect
same,CAS protein levels,"CAS; resistant cells, 1 μM lapatinib",declined over time
same,cell death in response to lapatinib treatment,[1],did not die
same,HSP90β phosphorylation at both Ser226 and Ser255,HSP90β; lapatinib-treated resistant cells compared to sensitive cells,markedly decreased
same,HSP90β phosphorylation,"HSP90β; normal BT474 cells, 1 μM lapatinib",did not prevent
